The record followed here is ChEMBL document CHEMBL3797133, “Structure-Based Design of an Iminoheterocyclic β-Site Amyloid Precursor Protein Cleaving Enzyme (BACE) Inhibitor that Lowers Central Aβ in Nonhuman Primates” (J Med Chem, 2016).

Data set [1] can be described thus: in vivo. The settings on record: rat, brain/plasma, po, 10 mg/kg.
Data set [2] is described as follows: in vivo. The settings on record: rat, brain homogenate, po, 10 mg/kg.

A word on the Kp: it is tissue or fluid exposure divided by exposure in the circulation. As to `COc1nc(N2C[C@H]3C(=O)N(C)C(N)=N[C@@]3(c3c(F)ccc(F)c3F)C2)nc(C)c1F`, the Kp at 6 h in “in vivo [1]” came out at 0.4. In addition, in “in vivo [2]”, the concentration at 6 h worked out at 0.088 µM.
